pIC50: −log10 of the molar value.

From patent US9187472B2 (AbbVie Inc., priority 2012, dated 2015) come the findings set out here.

Assay [1] concerns the target NAMPT (Homo sapiens, UniProt P43490). As to the kind of experiment: TR-FRET Binding Assay of NAMPT with PRPP. The note with it: with 200 μM PRPP and 2.5 mM ATP; 2 nM NAMPT, 2 nM probe, 16 hours equilibration. The essentials:
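Substrate-containing variant: 200 μM PRPP plus 2.5 mM ATP are added to 2 nM NAMPT and 2 nM probe, with a 16-hour incubation ahead of TR-FRET reading.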
Background: TR-FRET usually uses a lanthanide donor and a delayed reading to cut background.

Assay [2] deals with PC3 cells. As to the kind of experiment: NAMPT Cell Proliferation Assay. The format is cell-based. The settings on record: Homo sapiens, PC-3, 120 h, 5 days incubation, cell viability by Cell Titer Glo. In a few lines: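 IC50 values derive from sigmoidal dose-response fits of percent inhibition of PC3 viability, measured by luminescence after 5 days of compound treatment. Cells (500/well, RPMI containing 10% heat-inactivated FBS) are allowed to attach overnight, and compounds are tested at 10-fold dilutions between 10 μM and 1×10^−5 μM.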
In general terms: Cellular ATP, detected with luciferase, serves as a proxy for viable cell number.

The target in assay [3] is NAMPT (human, recombinant, C-terminally His-tagged) (Homo sapiens, UniProt P43490). As to the kind of experiment: Time-Resolved Fluorescence Resonance Energy Transfer (TR-FRET) Binding Assay of NAMPT. The settings on record: without substrates; 6.8 nM NAMPT, 200 nM probe, 3 hours equilibration. In a few lines: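 In a displacement format, the nicotinamide-site tracer at 200 nM competed with test compound for 6.8 nM enzyme detected via 1 nM terbium anti-His antibody; incubation lasted 3 hours at room temperature in 50 mM HEPES pH 7.5, 100 mM NaCl. Normalized 520/495 nm emission ratios gave IC50 values.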
Sequence of NAMPT (human, recombinant, C-terminally His-tagged) (P43490 whole entry): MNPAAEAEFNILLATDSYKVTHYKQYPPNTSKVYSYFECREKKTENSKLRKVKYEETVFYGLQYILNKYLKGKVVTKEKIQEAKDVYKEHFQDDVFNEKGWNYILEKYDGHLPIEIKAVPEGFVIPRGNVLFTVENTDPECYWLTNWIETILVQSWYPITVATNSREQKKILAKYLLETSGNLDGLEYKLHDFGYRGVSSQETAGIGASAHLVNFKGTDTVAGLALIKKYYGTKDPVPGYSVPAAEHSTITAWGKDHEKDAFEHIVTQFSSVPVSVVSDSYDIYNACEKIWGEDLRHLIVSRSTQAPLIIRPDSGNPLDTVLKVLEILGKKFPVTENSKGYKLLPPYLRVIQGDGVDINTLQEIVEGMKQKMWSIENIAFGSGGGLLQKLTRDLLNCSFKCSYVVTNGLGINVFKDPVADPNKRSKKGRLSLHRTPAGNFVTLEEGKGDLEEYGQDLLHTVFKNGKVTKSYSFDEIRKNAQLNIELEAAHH

Sequence of NAMPT (P43490 whole entry): as above

Consider `O=C(NCc1ccn2ccnc2c1)Nc1ccc(OC2CCN(C(=O)c3cc(F)cc(F)c3)CC2)cc1` [Example 730, 1-(4-{[1-(3,5-difluorobenzoyl)piperidin-4-yl]oxy}phenyl)-3-(imidazo[1,2-a]pyridin-7-ylmethyl)urea], for which the pIC50 – broadly, the IC50 on a negative log10 scale, so that one unit is a factor of ten – in assay [1] was 9.07; in assay [2], 7.53; in assay [3], 6.31.

In the case of `O=C(NCc1ccn2ccnc2c1)c1ccc(C2CCN(C(=O)Cc3ccccc3)C2)cc1` (stereo not drawn) [Example 731, N-(imidazo[1,2-a]pyridin-7-ylmethyl)-4-[1-(phenylacetyl)pyrrolidin-3-yl]benzamide], the negative logarithm of the IC50 (pIC50) in assay [1] was 9.41; in assay [2], 7.30; in assay [3], 6.65.

Regarding `CC(C)(C(=O)N1CCC(c2ccc(C(=O)NCc3ccn4ccnc4c3)cc2)C1)c1ccccc1` (stereo not drawn) [Example 732, N-(imidazo[1,2-a]pyridin-7-ylmethyl)-4-[1-(2-methyl-2-phenylpropanoyl)pyrrolidin-3-yl]benzamide], the negative-log IC50 (pIC50) in assay [1] is 9.33; in assay [2] it was 8.23; in assay [3], 7.67.

In the case of `O=C(NCc1ccn2ccnc2c1)c1ccc(C2CCN(C(=O)C(F)(F)c3ccccc3)C2)cc1` (stereo not drawn) [Example 733, 4-{1-[difluoro(phenyl)acetyl]pyrrolidin-3-yl}-N-(imidazo[1,2-a]pyridin-7-ylmethyl)benzamide], the negative logarithm of the IC50 (pIC50) in assay [1] is 9.15; in assay [2], 7.69; in assay [3] it was 6.92.

`CC1(Cn2cc(-c3ccc(C(=O)NCc4ccn5ccnc5c4)o3)cn2)CCOCC1` [Example 734, N-(imidazo[1,2-a]pyridin-7-ylmethyl)-5-{1-[(4-methyltetrahydro-2H-pyran-4-yl)methyl]-1H-pyrazol-4-yl}furan-2-carboxamide]: the negative logarithm of the IC50 (pIC50) in assay [1] was 9.22; in assay [2], 9.26; in assay [3], 7.85.

For `O=C(NCc1ccn2ccnc2c1)c1ccc(C2CCN(C(=O)c3ccccc3F)CC2)o1` [Example 735, 5-[1-(2-fluorobenzoyl)piperidin-4-yl]-N-(imidazo[1,2-a]pyridin-7-ylmethyl)furan-2-carboxamide], the pIC50 in assay [1] was 9.06; in assay [2], 6.16; in assay [3], 6.19.

Take `CC(C)C(=O)N1CCC(c2ccc(C(=O)NCc3ccn4ccnc4c3)o2)CC1` [Example 736, N-(imidazo[1,2-a]pyridin-7-ylmethyl)-5-[1-(2-methylpropanoyl)piperidin-4-yl]furan-2-carboxamide]: the results for the pIC50 in assay [1], in assay [2] and in assay [3] were 9.14, 5.08 and 5.51, respectively.

Take `N#Cc1ccccc1C(=O)N1CCC(c2ccc(C(=O)NCc3ccn4ccnc4c3)cc2)CC1` [Example 737, 4-[1-(2-cyanobenzoyl)piperidin-4-yl]-N-(imidazo[1,2-a]pyridin-7-ylmethyl)benzamide]: the figures for the negative-log IC50 (pIC50) in assay [1], in assay [2] and in assay [3] were 9.21, 8.39 and 7.15, respectively.

For the molecule `O=C(NCc1ccn2ccnc2c1)c1ccc(-c2cnn(CC(F)(F)F)c2)o1` [Example 738, N-(imidazo[1,2-a]pyridin-7-ylmethyl)-5-[1-(2,2,2-trifluoroethyl)-1H-pyrazol-4-yl]furan-2-carboxamide], the results for the negative-log IC50 (pIC50) in assay [1], in assay [2] and in assay [3] were 9.15, 7.07 and 6.44, respectively.

As for `O=C(Cc1ccn2ccnc2c1)Nc1ccc(NC(=O)CC2CCCC2)cc1` [Example 739, 2-cyclopentyl-N-{4-[(imidazo[1,2-a]pyridin-7-ylacetyl)amino]phenyl}acetamide], the pIC50 in assay [1] was 9.17; in assay [2], 7.17; in assay [3], 7.42.

On to `CC(C)Cn1cc(-c2ccc(C(=O)NCc3ccn4ccnc4c3)o2)cn1` [Example 740, N-(imidazo[1,2-a]pyridin-7-ylmethyl)-5-[1-(2-methylpropyl)-1H-pyrazol-4-yl]furan-2-carboxamide], for which the values for the pIC50 in assay [1], in assay [2] and in assay [3] were 9.39, 8.09 and 7.15, respectively.

For the molecule `O=C(NCc1ccn2ccnc2c1)c1ccc(-c2cnn(Cc3ccccc3)c2)o1` [Example 741, 5-(1-benzyl-1H-pyrazol-4-yl)-N-(imidazo[1,2-a]pyridin-7-ylmethyl)furan-2-carboxamide], the negative logarithm of the IC50 (pIC50) is 9.19 in assay [1], 7.13 in assay [2] and 7.17 in assay [3].

On to `O=C(NCc1ccn2ccnc2c1)c1ccc(-c2cnn(C[C@@H]3CCCO3)c2)o1` [Example 742, N-(imidazo[1,2-a]pyridin-7-ylmethyl)-5-{1-[(2S)-tetrahydrofuran-2-ylmethyl]-1H-pyrazol-4-yl}furan-2-carboxamide], for which the values for the pIC50 in assay [1], in assay [2] and in assay [3] were 9.28, 7.98 and 6.62, respectively.

As to `O=C(NCc1ccn2ccnc2c1)c1ccc(-c2cnn(C[C@H]3CCCO3)c2)o1` [Example 743, N-(imidazo[1,2-a]pyridin-7-ylmethyl)-5-{1-[(2R)-tetrahydrofuran-2-ylmethyl]-1H-pyrazol-4-yl}furan-2-carboxamide], the results for the negative-log IC50 (pIC50) in assay [1], in assay [2] and in assay [3] were 9.16, 8.17 and 7.20, respectively.

On to `CC(C)C(=O)N1CC=C(c2ccc(C(=O)NCc3ccn4ccnc4c3)o2)CC1` [Example 744, N-(imidazo[1,2-a]pyridin-7-ylmethyl)-5-[1-(2-methylpropanoyl)-1,2,3,6-tetrahydropyridin-4-yl]furan-2-carboxamide], for which the negative-log IC50 (pIC50) in assay [1] is 9.09; in assay [2], 6.30; in assay [3], 5.97.

Take `CC(C)CC(=O)N1CC=C(c2ccc(C(=O)NCc3ccn4ccnc4c3)o2)CC1` [Example 745, N-(imidazo[1,2-a]pyridin-7-ylmethyl)-5-[1-(3-methylbutanoyl)-1,2,3,6-tetrahydropyridin-4-yl]furan-2-carboxamide]: the pIC50 is 9.11 in assay [1], 6.20 in assay [2] and 6.00 in assay [3].

Take `O=C(NCc1ccn2ccnc2c1)c1ccc(C2=CCN(C(=O)c3ccccc3)CC2)o1` [Example 746, 5-(1-benzoyl-1,2,3,6-tetrahydropyridin-4-yl)-N-(imidazo[1,2-a]pyridin-7-ylmethyl)furan-2-carboxamide]: the pIC50 in assay [1] is 9.08; in assay [2], 6.94; in assay [3] it was 6.10.

As for `CC(C)Cc1ccc(-c2ccc(C(=O)NCc3ccn4ccnc4c3)o2)cc1` [Example 747, N-(imidazo[1,2-a]pyridin-7-ylmethyl)-5-[4-(2-methylpropyl)phenyl]furan-2-carboxamide], the values for the negative-log IC50 (pIC50) in assay [1], in assay [2] and in assay [3] were 8.76, 6.03 and 6.36, respectively.

Turning to `CC[C@H](C)C(=O)N1CC=C(c2ccc(C(=O)NCc3ccn4ccnc4c3)o2)CC1` [Example 748, N-(imidazo[1,2-a]pyridin-7-ylmethyl)-5-{1-[(2S)-2-methylbutanoyl]-1,2,3,6-tetrahydropyridin-4-yl}furan-2-carboxamide], the figures for the pIC50 in assay [1], in assay [2] and in assay [3] were 9.19, 7.29 and 6.25, respectively.

As to `CC(C)(C)CC(=O)N1CC=C(c2ccc(C(=O)NCc3ccn4ccnc4c3)o2)CC1` [Example 749, 5-[1-(3,3-dimethylbutanoyl)-1,2,3,6-tetrahydropyridin-4-yl]-N-(imidazo[1,2-a]pyridin-7-ylmethyl)furan-2-carboxamide], the negative logarithm of the IC50 (pIC50) in assay [1] was 9.10; in assay [2] it was 7.11; in assay [3] it was 6.41.
